{"source": "patent US11447500B2", "about": "“Thienopyridine derivatives and pharmaceutical composition comprising same” (WELLMARKER BIO CO., LTD., priority 2018, dated 2022)", "key": {"RON kinase": {"target": "T1, RON kinase (Homo sapiens, UniProt Q04912)", "T1 construct": "purchased Carna Bioscience", "T1 sequence (Q04912 25-1400)": "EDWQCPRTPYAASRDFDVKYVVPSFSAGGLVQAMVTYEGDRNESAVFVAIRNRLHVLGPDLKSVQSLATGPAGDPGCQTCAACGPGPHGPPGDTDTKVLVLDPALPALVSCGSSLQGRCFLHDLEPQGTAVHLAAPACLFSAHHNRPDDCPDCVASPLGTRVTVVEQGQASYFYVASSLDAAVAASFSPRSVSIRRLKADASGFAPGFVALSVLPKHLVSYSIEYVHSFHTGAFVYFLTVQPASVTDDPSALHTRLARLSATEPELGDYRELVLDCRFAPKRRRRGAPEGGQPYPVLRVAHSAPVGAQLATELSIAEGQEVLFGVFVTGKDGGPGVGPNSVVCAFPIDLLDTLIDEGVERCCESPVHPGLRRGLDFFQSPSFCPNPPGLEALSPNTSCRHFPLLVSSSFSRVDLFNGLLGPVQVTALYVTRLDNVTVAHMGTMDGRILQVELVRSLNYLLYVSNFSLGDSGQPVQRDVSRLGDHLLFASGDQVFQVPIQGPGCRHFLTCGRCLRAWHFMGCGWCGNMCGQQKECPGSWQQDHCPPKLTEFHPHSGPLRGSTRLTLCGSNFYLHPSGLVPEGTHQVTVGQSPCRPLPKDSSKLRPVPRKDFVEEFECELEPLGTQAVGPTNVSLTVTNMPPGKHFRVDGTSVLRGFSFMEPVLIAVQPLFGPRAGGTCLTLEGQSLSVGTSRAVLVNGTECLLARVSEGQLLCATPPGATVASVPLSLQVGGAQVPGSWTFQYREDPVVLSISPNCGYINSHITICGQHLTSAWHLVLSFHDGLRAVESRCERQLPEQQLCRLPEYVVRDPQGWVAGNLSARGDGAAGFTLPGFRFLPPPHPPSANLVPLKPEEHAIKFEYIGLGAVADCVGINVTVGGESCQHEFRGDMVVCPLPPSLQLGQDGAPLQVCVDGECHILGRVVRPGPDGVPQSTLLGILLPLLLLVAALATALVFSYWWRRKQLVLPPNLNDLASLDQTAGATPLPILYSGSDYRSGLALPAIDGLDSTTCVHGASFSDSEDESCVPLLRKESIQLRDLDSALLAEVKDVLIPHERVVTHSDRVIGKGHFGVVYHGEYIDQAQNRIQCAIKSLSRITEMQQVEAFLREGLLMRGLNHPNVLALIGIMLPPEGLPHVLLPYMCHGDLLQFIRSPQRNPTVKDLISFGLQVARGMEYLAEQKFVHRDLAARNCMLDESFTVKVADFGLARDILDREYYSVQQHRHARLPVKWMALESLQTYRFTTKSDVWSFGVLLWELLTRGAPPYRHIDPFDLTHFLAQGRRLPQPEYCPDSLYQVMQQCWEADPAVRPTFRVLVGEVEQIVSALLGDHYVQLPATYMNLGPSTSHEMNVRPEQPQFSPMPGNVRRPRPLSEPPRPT", "assay": "RON kinase enzyme inhibitory activity, FRET (TR-FRET) technique", "format": "biochemical", "conditions": "60 min reaction", "procedure,_shortened": "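RON kinase (2× stock 0.4 nM) was preincubated 15 min with compound in HEPES pH 7.5/MgCl2 buffer, then reacted 60 min at room temperature with ATP (4× stock 60 μM) and tyrosine peptide substrate (4× stock 400 nM). The reaction was stopped with EDTA plus Eu-anti-phosphotyrosine antibody and read by TR-FRET (ex 340, em 620/665 nm). IC50 came from 665 nm emission versus concentration.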"}, "KM12C cells": {"tested_on": "KM12C cells", "assay": "Cytotoxicity MTS assay, KM12C", "format": "cell-based", "conditions": "Homo sapiens, 72 hours", "description": "(§1) In order to confirm the specific cytotoxicity of the drugs, the cultured cells were treated with 0.05% trypsin/EDTA (0.5% trypsin EDTA (10×), Product No.: 15400-054, GIBCO) to detach them from the culture dish, and 3,000 cells (KM12C) or 2,000 cells (HT29, Colo 320 HSR) were dispensed into each well.\n(§2) After 24 hours, sample compounds were dissolved in DMSO (Product No.: D8418-250ML, SIGMA) to make 10 mM stock solutions. As the sample compounds, the compounds synthesized in the examples of the present invention and the compounds of the comparative examples were used.\n(§3) The cells were treated with the sample compound dilutions, and cultured in a 5% CO2 incubator at 37° C. for 72 hours.\n(§4) Thereafter, 20 μL of MTS solution (CellTiter™ 96 Aqueous One Solution Cell Proliferation Assay, Product No.: G3581, Promega) was dispensed into each well and mixed well, and the cells were incubated for 1 to 4 hours at 37° C. in a 5% CO2 incubator."}, "HT29 cells": {"tested_on": "HT29 cells", "assay": "Cytotoxicity MTS assay, HT29", "format": "cell-based", "conditions": "Homo sapiens, HT-29, 72 hours", "description": "as §1, §2, §3, §4"}, "[1]": {"tested_on": "RON-activated KM12C colon cancer cell line", "assay": "Cell killing efficacy, trypan blue exclusion assay, KM12C", "format": "cell-based", "conditions": "48 hours", "procedure,_shortened": "(§5)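 KM12C (MEM+10% FBS) and HT-29 (RPMI+10% FBS) cells, seeded 24 h earlier, exposed to compound at 1 μM or 5 μM for 48 h after medium change. Live and dead cells counted by trypan blue exclusion (n=2); cell death rate reported relative to a reference comparative compound.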"}, "[2]": {"tested_on": "RON-mutated (Δ160) HT-29 colon cancer cell line", "assay": "Cell killing efficacy, trypan blue exclusion assay, HT-29", "format": "cell-based", "conditions": "HT29 cell, 48 hours", "procedure,_shortened": "as §5"}}}
{"smiles": "COCCNCc1ccc(-c2cc3nccc(Oc4ccc(NC(=O)c5ccc(C)n(-c6ccc(F)cc6)c5=O)cc4F)c3s2)nc1.Cl", "note": "[Example 22, N-(3-fluoro-4-{[2-(5-{[(2-methoxyethyl)amino]methyl}pyridin-2-yl)thieno[3,2-b]pyridin-7-yl]oxy}phenyl)-1-(4-fluorophenyl)-6-methyl-2-oxo-1,2-dihydropyridine-3-carboxamide Hydrochloride]", "values": [{"measurement": "IC50", "setting": "RON kinase", "result": 0.44, "unit": "nM"}, {"measurement": "IC50", "setting": "KM12C cells", "result": 1, "unit": "nM"}, {"measurement": "IC50", "setting": "HT29 cells", "result": 1180, "unit": "nM"}, {"measurement": "Cell death rate (Relative to Comp. Ex. 1)", "setting": "[1]; 1 μM", "result": "x 1.48"}, {"measurement": "Cell death rate (Relative to Comp. Ex. 1)", "setting": "[1]; 5 μM", "result": "x 1.61"}, {"measurement": "Cell death rate (Relative to Comp. Ex. 1)", "setting": "[2]; 1 μM", "result": "x 1.07"}, {"measurement": "Cell death rate (Relative to Comp. Ex. 1)", "setting": "[2]; 5 μM", "result": "x 1.71"}]}
{"smiles": "Cc1ccc(C(=O)Nc2ccc(Oc3cc4cnn(C)c4cc3-c3cn[nH]c3)c(F)c2)c(=O)n1-c1ccc(F)cc1", "note": "[Comp. Ex. 3, N-(3-fluoro-4-(1-methyl-6-(1H-pyrazol-4-yl)-1H-indazol-5-yloxy)phenyl)-1-(4-fluorophenyl)-6-methyl-2-oxo-1,2-dihydropyridine-3-carboxamide, reference compound]", "values": [{"measurement": "IC50", "setting": "RON kinase", "result": 3.74, "unit": "nM"}, {"measurement": "IC50", "setting": "KM12C cells", "result": 117, "unit": "nM"}, {"measurement": "IC50", "setting": "HT29 cells", "result": 10800, "unit": "nM"}, {"measurement": "Cell death rate (Relative to Comp. Ex. 1)", "setting": "[1]; 1 μM", "result": "x 0.54"}, {"measurement": "Cell death rate (Relative to Comp. Ex. 1)", "setting": "[1]; 5 μM", "result": "x 0.33"}, {"measurement": "Cell death rate (Relative to Comp. Ex. 1)", "setting": "[2]; 1 μM", "result": "x 0.83"}, {"measurement": "Cell death rate (Relative to Comp. Ex. 1)", "setting": "[2]; 5 μM", "result": "x 0.52"}]}
{"smiles": "COCCNCc1ccc(-c2cc3nccc(Oc4ccc(NC(=O)c5ccnn(-c6ccc(F)cc6)c5=O)cc4F)c3s2)nc1.Cl", "note": "[Example 20, N-(3-fluoro-4-[{2-(5-[{(2-methoxyethyl)amino}methyl]pyridin-2-yl)thieno[3,2-b]pyridin-7-yl}oxy]phenyl)-2-(4-fluorophenyl)-3-oxo-2,3-dihydropyridazine-4-carboxamide Hydrochloride]", "values": [{"measurement": "IC50", "setting": "RON kinase", "result": 2.47, "unit": "nM"}, {"measurement": "IC50", "setting": "KM12C cells", "result": 10, "unit": "nM"}, {"measurement": "IC50", "setting": "HT29 cells", "result": "> 10000", "unit": "nM"}, {"measurement": "Cell death rate (Relative to Comp. Ex. 1)", "setting": "[1]; 1 μM", "result": "x 1.07"}, {"measurement": "Cell death rate (Relative to Comp. Ex. 1)", "setting": "[1]; 5 μM", "result": "x 1.11"}, {"measurement": "Cell death rate (Relative to Comp. Ex. 1)", "setting": "[2]; 1 μM", "result": "x 0.75"}, {"measurement": "Cell death rate (Relative to Comp. Ex. 1)", "setting": "[2]; 5 μM", "result": "x 1.13"}]}
{"smiles": "CCOc1ccn(-c2ccc(F)cc2)c(=O)c1C(=O)Nc1ccc(Oc2ccnc3cc(-c4ccc(CN5CCN(C)CC5)cn4)sc23)c(F)c1.Cl", "note": "[Example 33, 4-ethoxy-N-{3-fluoro-4-[(2-{5-[(4-methylpiperazin-1-yl)methyl]pyridin-2-yl}thieno[3,2-b]pyridin-7-yl)oxy]phenyl}-1-(4-fluorophenyl)-2-oxo-1,2-dihydropyridine-3-carboxamide Hydrochloride]", "values": [{"measurement": "IC50", "setting": "RON kinase", "result": 0.26, "unit": "nM"}, {"measurement": "IC50", "setting": "KM12C cells", "result": 9, "unit": "nM"}, {"measurement": "IC50", "setting": "HT29 cells", "result": 335, "unit": "nM"}, {"measurement": "Cell death rate (Relative to Comp. Ex. 1)", "setting": "[1]; 1 μM", "result": "x 1.99"}, {"measurement": "Cell death rate (Relative to Comp. Ex. 1)", "setting": "[1]; 5 μM", "result": "x 2.13"}, {"measurement": "Cell death rate (Relative to Comp. Ex. 1)", "setting": "[2]; 1 μM", "result": "x 2.01"}, {"measurement": "Cell death rate (Relative to Comp. Ex. 1)", "setting": "[2]; 5 μM", "result": "x 1.50"}]}
{"smiles": "COCCNCc1ccc(-c2cc3nccc(Oc4ccc(NC(=O)c5ccc(C)n(-c6ccccc6)c5=O)cc4F)c3s2)nc1.Cl", "note": "[Example 21, N-(3-fluoro-4-{[2-(5-{[(2-methoxyethyl)amino]methyl}pyridin-2-yl)thieno[3,2-b]pyridin-7-yl]oxy}phenyl)-6-methyl-2-oxo-1-phenyl-1,2-dihydropyridine-3-carboxamide Hydrochloride]", "values": [{"measurement": "IC50", "setting": "RON kinase", "result": 0.56, "unit": "nM"}, {"measurement": "IC50", "setting": "KM12C cells", "result": 1500, "unit": "nM"}, {"measurement": "IC50", "setting": "HT29 cells", "result": 1300, "unit": "nM"}, {"measurement": "Cell death rate (Relative to Comp. Ex. 1)", "setting": "[1]; 1 μM", "result": "x 0.93"}, {"measurement": "Cell death rate (Relative to Comp. Ex. 1)", "setting": "[1]; 5 μM", "result": "x 4.06"}, {"measurement": "Cell death rate (Relative to Comp. Ex. 1)", "setting": "[2]; 1 μM", "result": "x 1.30"}, {"measurement": "Cell death rate (Relative to Comp. Ex. 1)", "setting": "[2]; 5 μM", "result": "x 4.10"}]}
{"smiles": "CCOc1ccn(-c2ccccc2)c(=O)c1C(=O)Nc1ccc(Oc2ccnc3cc(-c4ccc(CNCCOC)cn4)sc23)c(F)c1.Cl", "note": "[Example 1, 4-ethoxy-N-(3-fluoro-4-{[2-(5-{[(2-methoxyethyl)amino]methyl}pyridin-2-yl)thieno[3,2-b]pyridin-7-yl]oxy}phenyl)-2-oxo-1-phenyl-1,2-dihydropyridine-3-carboxamide hydrochloride]", "values": [{"measurement": "IC50", "setting": "RON kinase", "result": 0.51, "unit": "nM"}, {"measurement": "IC50", "setting": "KM12C cells", "result": 45, "unit": "nM"}, {"measurement": "IC50", "setting": "HT29 cells", "result": 1100, "unit": "nM"}, {"measurement": "Cell death rate (Relative to Comp. Ex. 1)", "setting": "[1]; 1 μM", "result": "x 3.37"}, {"measurement": "Cell death rate (Relative to Comp. Ex. 1)", "setting": "[1]; 5 μM", "result": "x 2.47"}, {"measurement": "Cell death rate (Relative to Comp. Ex. 1)", "setting": "[2]; 1 μM", "result": "x 4.06"}, {"measurement": "Cell death rate (Relative to Comp. Ex. 1)", "setting": "[2]; 5 μM", "result": "x 2.41"}]}
